Test results from US20220396565A1 (Hoffmann-La Roche Inc., priority 2020, published 2022).
Where a name gives a salt, the structure may show the parent alone.

The molecules below were run on Acinetobacter baumannii ATCC17961 (assay: Antimicrobial susceptibility testing: 90% growth inhibitory concentration (IC90) determination, Iso-Sensitest broth). Conditions: Acinetobacter baumannii, ATCC17961, 90% growth inhibitory concentration, Acinetobacter baumannii ATCC17961, Iso-Sensitest broth; read-out: ATCC 17961 IC90.
Format: cell-based
In short: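 Twofold serial dilutions (e.g. 10 to 0.02 μM final) were tested in Iso-Sensitest broth against ~5×10^(5) CFU/ml at 35±2 °C. OD600 was read every 20 min over 16 h. IC90 was derived from growth inhibition during the logarithmic phase.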
With Cn1c(-c2ccc(OCC#N)c(F)c2Cl)cnc1C(=O)Nc1ccc(C(=O)N2CCN(C(=O)C3CCNCC3)CC2)c(Cl)c1 [Example 252, 5-[2-chloro-4-(cyanomethoxy)-3-fluoro-phenyl]-N-[3-chloro-4-[4-(piperidine-4-carbonyl)piperazine-1-carbonyl]phenyl]-1-methyl-imidazole-2-carboxamide formate] the IC90 was 60 nM. Work on COc1ccc(-c2cnc(C(=O)Nc3ccc(C(=O)N4CCC(C(=O)N[C@@H]5CNC[C@H]5O)CC4)c(Cl)c3)n2C)c(F)c1F [Example 60, 1-[2-chloro-4-[[5-(2,3-difluoro-4-methoxy-phenyl)-1-methyl-imidazole-2-carbonyl]amino]benzoyl]-N-[(3R,4R)-4-hydroxypyrrolidin-3-yl]piperidine-4-carboxamide formate] yielded an IC90 of 50 nM. COc1ccc(-c2cnc(C(=O)Nc3ccc(C(=O)N4CCN(C(=O)[C@H]5CCNC[C@H]5O)CC4)c(Cl)c3)n2C)c(F)c1F [Example 229, N-[3-chloro-4-[4-[(3S,4S)-3-hydroxypiperidine-4-carbonyl]piperazine-1-carbonyl]phenyl]-5-(2,3-difluoro-4-methoxy-phenyl)-1-methyl-imidazole-2-carboxamide] was tested, and the IC90 was 90 nM. COc1ccc(-c2cnc(C(=O)Nc3ccc(C(=O)N4CC5(CC(C(=O)N6CCN[C@@H](CO)C6)C5)C4)c(Cl)c3)n2C)c(F)c1F [Example 41, N-[3-chloro-4-[6-[(3R)-3-(hydroxymethyl)piperazine-1-carbonyl]-2-azaspiro[3,3]heptane-2-carbonyl]phenyl]-5-(2,3-difluoro-4-methoxy-phenyl)-1-methyl-imidazole-2-carboxamide] was tested, and the IC90 was 140 nM. CN(C)CC(=O)N1CCN(C(=O)c2ccc(NC(=O)c3ncc(-c4ccc(OC(F)F)c(F)c4)n3C)cc2Cl)CC1 [Example 176, N-[3-chloro-4-[4-[2-(dimethylamino)acetyl]piperazine-1-carbonyl]phenyl]-5-[4-(difluoromethoxy)-3-fluoro-phenyl]-1-methyl-imidazole-2-carboxamide formate] showed an IC90 of 80 nM. In the case of COc1ccc(-c2cnc(C(=O)Nc3ccc(C(=O)N4CCC(C(=O)N5CCN[C@@H](CO)C5)CC4)c(Cl)c3)n2C)c(F)c1F [Example 30, N-[3-chloro-4-[4-[(3R)-3-(hydroxymethyl)piperazine-1-carbonyl]piperidine-1-carbonyl]phenyl]-5-(2,3-difluoro-4-methoxy-phenyl)-1-methyl-imidazole-2-carboxamide], the IC90 is reported as 170 nM. Cn1c(-c2ccc(OC(F)F)c(F)c2Cl)cnc1C(=O)Nc1ccc(C(=O)N2CCN(C(=O)C[C@@H]3CCNC3)CC2)c(Cl)c1 [Example 147, 5-[2-chloro-4-(difluoromethoxy)-3-fluoro-phenyl]-N-[3-chloro-4-[4-[2-[(3S)-pyrrolidin-3-yl]acetyl]piperazine-1-carbonyl]phenyl]-1-methyl-imidazole-2-carboxamide formate] gave an IC90 of 40 nM. In the case of Cn1c(-c2ccc(OC(F)F)c(F)c2F)cnc1C(=O)Nc1ccc(C(=O)N2CCC(C(=O)N[C@H]3CNC[C@@H]3O)CC2)c(Cl)c1 [Example 50, 1-[2-chloro-4-[[5-[4-(difluoromethoxy)-2,3-difluoro-phenyl]-1-methyl-imidazole-2-carbonyl]amino]benzoyl]-N-[(3S,4S)-4-hydroxypyrrolidin-3-yl]piperidine-4-carboxamide trifluoroacetate], the IC90 is reported as 50 nM. COc1ccc(-c2cnc(C(=O)Nc3ccc(C(=O)N4CCN(C(=O)C5CCC(=O)NC5)CC4)c(Cl)c3)n2C)c(F)c1F (stereo not drawn) [Example 125, N-[3-chloro-4-[4-(6-oxopiperidine-3-carbonyl)piperazine-1-carbonyl]phenyl]-5-(2,3-difluoro-4-methoxy-phenyl)-1-methyl-imidazole-2-carboxamide] showed an IC90 of 110 nM. COc1ccc(-c2cnc(C(=O)Nc3ccc(C(=O)N4CCC(C(=O)NCc5ccncc5)CC4)c(Cl)c3)n2C)c(F)c1F [Example 36, 1-[2-chloro-4-[[5-(2,3-difluoro-4-methoxy-phenyl)-1-methyl-imidazole-2-carbonyl]amino]benzoyl]-N-(4-pyridylmethyl)piperidine-4-carboxamide] gave an IC90 of 130 nM. For COc1ccc(-c2cnc(C(=O)Nc3ccc(C(=O)N4CC(C(=O)N5C[C@H]6CNC[C@H]6C5)C4)c(Cl)c3)n2C)c(F)c1F [Example 70, N-[4-[3-[(3aR,6aS)-2,3,3a,4,6,6a-hexahydro-1H-pyrrolo[3,4-c]pyrrole-5-carbonyl]azetidine-1-carbonyl]-3-chloro-phenyl]-5-(2,3-difluoro-4-methoxy-phenyl)-1-methyl-imidazole-2-carboxamide formate], the IC90 was 140 nM. Work on COc1ccc(-c2cnc(C(=O)Nc3ccc(C(=O)N4CCN(C(=O)C[C@@H]5CCNC5)CC4)c(Cl)c3)n2C)c(F)c1F [Example 194, N-[3-chloro-4-[4-[2-[(3S)-pyrrolidin-3-yl]acetyl]piperazine-1-carbonyl]phenyl]-5-(2,3-difluoro-4-methoxy-phenyl)-1-methyl-imidazole-2-carboxamide formate] yielded an IC90 of 50 nM. For COc1ccc(-c2cnc(C(=O)Nc3ccc(C(=O)N4CCN(C(=O)C[C@@H]5CCNC5)CC4)c(Cl)c3)n2C)c(C(F)F)c1F [Example 261, N-[3-chloro-4-[4-[2-[(3S)-pyrrolidin-3-yl]acetyl]piperazine-1-carbonyl]phenyl]-5-[2-(difluoromethyl)-3-fluoro-4-methoxy-phenyl]-1-methyl-imidazole-2-carboxamide formate], the IC90 was 80 nM. Molecule Cn1c(-c2ccc(OCF)c(F)c2F)cnc1C(=O)Nc1ccc(C(=O)N2CCC(C(=O)NC[C@@H]3CCNC3)CC2)c(Cl)c1 [Example 54, 1-[2-chloro-4-[[5-[2,3-difluoro-4-(fluoromethoxy)phenyl]-1-methyl-imidazole-2-carbonyl]amino]benzoyl]-N-[[(3R)-pyrrolidin-3-yl]methyl]piperidine-4-carboxamide formate] has an IC90 of 40 nM. COc1ccc(-c2cnc(C(=O)Nc3ccc(C(=O)N4CCN(C(=O)[C@@H]5CCNC5)CC4)c(Cl)c3)n2C)c(F)c1F [Example 138, N-[3-chloro-4-[4-[(3R)-pyrrolidine-3-carbonyl]piperazine-1-carbonyl]phenyl]-5-(2,3-difluoro-4-methoxy-phenyl)-1-methyl-imidazole-2-carboxamide formate] showed an IC90 of 30 nM. COc1ccc(-c2cnc(C(=O)Nc3ccc(C(=O)N4CCC(OCC5CNC5)CC4)c(Cl)c3)n2C)c(F)c1F [Example 23, N-[4-[4-(azetidin-3-ylmethoxy)piperidine-1-carbonyl]-3-chloro-phenyl]-5-(2,3-difluoro-4-methoxy-phenyl)-1-methyl-imidazole-2-carboxamide formate] showed an IC90 of 60 nM. Work on COc1ccc(-c2cnc(C(=O)Nc3ccc(C(=O)N4CCN(C(=O)CN5CCC(O)C5)CC4)c(Cl)c3)n2C)c(F)c1F (stereo not drawn) [Example 294, N-[3-chloro-4-[4-[2-(3-hydroxypyrrolidin-1-yl)acetyl]piperazine-1-carbonyl]phenyl]-5-(2,3-difluoro-4-methoxy-phenyl)-1-methyl-imidazole-2-carboxamide formate] yielded an IC90 of 40 nM. Molecule Cn1c(-c2ccc(OC(F)F)cc2F)cnc1C(=O)Nc1ccc(C(=O)N2CCN(C(=O)C3CCNCC3)CC2)c(Cl)c1 [Example 180, N-[3-chloro-4-[4-(piperidine-4-carbonyl)piperazine-1-carbonyl]phenyl]-5-[4-(difluoromethoxy)-2-fluoro-phenyl]-1-methyl-imidazole-2-carboxamide formate] has an IC90 of 60 nM. Cn1c(-c2ccc(OCF)c(F)c2F)cnc1C(=O)Nc1ccc(C(=O)N2CCN(C(=O)C3CNCC3O)CC2)c(Cl)c1 (stereo not drawn) [Example 148, N-[3-chloro-4-[4-(4-hydroxypyrrolidine-3-carbonyl)piperazine-1-carbonyl]phenyl]-5-[2,3-difluoro-4-(fluoromethoxy)phenyl]-1-methyl-imidazole-2-carboxamide formate] showed an IC90 of 40 nM. COc1ccc(-c2cnc(C(=O)Nc3ccc(C(=O)N4CCN(C(=O)CCOCCOCCN)CC4)c(Cl)c3)n2C)c(F)c1F [Example 131, N-[4-[4-[3-[2-(2-aminoethoxy)ethoxy]propanoyl]piperazine-1-carbonyl]-3-chloro-phenyl]-5-(2,3-difluoro-4-methoxy-phenyl)-1-methyl-imidazole-2-carboxamide formate] showed an IC90 of 90 nM. Work on Cn1c(-c2ccc(OCC#N)c(F)c2F)cnc1C(=O)Nc1ccc(C(=O)N2CCNCC2)c(Cl)c1 [Example 14, N-[3-chloro-4-(piperazine-1-carbonyl)phenyl]-5-[4-(cyanomethoxy)-2,3-difluoro-phenyl]-1-methyl-imidazole-2-carboxamide] yielded an IC90 of 130 nM.

Same assay, conditions: Acinetobacter baumannii, ATCC17961, read-out: ATCC 17961 IC90
In the case of Cn1c(-c2ccc(OCC#N)c(F)c2F)cnc1C(=O)Nc1ccc(C(=O)N2CCN(C(=O)[C@H]3CCCNC3)CC2)c(Cl)c1 [Example 208, (S)-N-(3-chloro-4-(4-(piperidine-3-carbonyl)piperazine-1-carbonyl)phenyl)-5-(4-(cyanomethoxy)-2,3-difluorophenyl)-1-methyl 1H-imidazole-2-carboxamide 2,2,2-trifluoroacetate], the IC90 is reported as 50 nM. Molecule Cn1c(-c2ccc(OC(F)F)c(F)c2F)cnc1C(=O)Nc1ccc(C(=O)N2CCC(C(=O)NCCN)CC2)c(Cl)c1 [Example 92, N-(2-aminoethyl)-1-(2-chloro-4-(5-(4-(difluoromethoxy)-2,3-difluorophenyl)-1-methyl-1H-imidazole-2-carboxamido)benzoyl) piperidine-4-carboxamide formate] has an IC90 of 60 nM. For COc1ccc(-c2cnc(C(=O)Nc3ccc(C(=O)N4CCN(C(=O)C5CCN(CC(=O)O)CC5)CC4)c(Cl)c3)n2C)c(F)c1F [Example 288, 2-[4-[4-[2-Chloro-4-[[5-(2,3-difluoro-4-methoxy-phenyl)-1-methyl-imidazole-2-carbonyl]amino]benzoyl]piperazine-1-carbonyl]-1-piperidyl]acetic acid trifluoroacetate], the IC90 was 470 nM.
